# Results: US20120184542A1, “PYRIDO PYRIMIDINES” (priority 2011, published 2012)
# Structures can show the parent of a compound that is named as a salt. Where two headings read alike, the source gives them in different places.
# Experiments:
# [1] = test system: SW620 human colon cancer cells; assay: SW620 Cell Viability Assay; type: cell-based; conditions: Homo sapiens, SW-620, 96 h, read-out: Cellular EC50 (μM) SW620
# Procedure: Some cells (S—) were allowed to attach for 24 hrs, serum starved for 48 hrs, and then followed with drug treatments Test Compound Solutions were Prepared in Regular Corresponding Media Supplemented with Serum 2. […] Viability Assay: This assay was performed as follows: • Transfer 50 μL of test compound solution per well from the test compound plate onto the cell plate prepared in Step #1. • Mix the plate with treated cells by pipetting up and down three times with 200 μL multi-channel pipette. • Incubate the cells in 5% CO2 incubator @ 37° C. for 4 days. • Run the CellTiter-Glo™ Luminescent Cell Viability Assay.
# Human DYRK1A = molecular target: T1, Human DYRK1A (Homo sapiens, UniProt Q13627); assay: DYRK1A Kinase TR-FRET (IMAP-Tb) Assay; type: biochemical; conditions: TR-FRET (IMAP-Tb); ATP 70 μM; 37° C. 60 minutes; read-out: Enzyme IC50 (μM) DYRK1A
# T1 construct: purchased Invitrogen PV3997
# In short: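 Recombinant human DYRK1A phosphorylated fluorescent substrate peptide (1.0 μM) with ATP in 10 mM HEPES pH 7.0, 50 mM NaCl, 5 mM MgCl2, 1 mM DTT, 1 mM NaVO4, 0.02% BSA for 60 min at 37 °C. Phosphopeptide detected by IMAP terbium TR-FRET; IC50 reported.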
# Human DYRK1B = molecular target: T2, Human DYRK1B (Homo sapiens, UniProt Q9Y463); assay: DYRK1B Kinase TR-FRET (IMAP-Tb) Assay; type: biochemical; conditions: TR-FRET (IMAP-Tb), ATP 70 μM, 37° C. 60 minutes
# T2 construct: purchased Invitrogen PR8350B (former PV4649)
# T2 sequence (Q9Y463 whole entry): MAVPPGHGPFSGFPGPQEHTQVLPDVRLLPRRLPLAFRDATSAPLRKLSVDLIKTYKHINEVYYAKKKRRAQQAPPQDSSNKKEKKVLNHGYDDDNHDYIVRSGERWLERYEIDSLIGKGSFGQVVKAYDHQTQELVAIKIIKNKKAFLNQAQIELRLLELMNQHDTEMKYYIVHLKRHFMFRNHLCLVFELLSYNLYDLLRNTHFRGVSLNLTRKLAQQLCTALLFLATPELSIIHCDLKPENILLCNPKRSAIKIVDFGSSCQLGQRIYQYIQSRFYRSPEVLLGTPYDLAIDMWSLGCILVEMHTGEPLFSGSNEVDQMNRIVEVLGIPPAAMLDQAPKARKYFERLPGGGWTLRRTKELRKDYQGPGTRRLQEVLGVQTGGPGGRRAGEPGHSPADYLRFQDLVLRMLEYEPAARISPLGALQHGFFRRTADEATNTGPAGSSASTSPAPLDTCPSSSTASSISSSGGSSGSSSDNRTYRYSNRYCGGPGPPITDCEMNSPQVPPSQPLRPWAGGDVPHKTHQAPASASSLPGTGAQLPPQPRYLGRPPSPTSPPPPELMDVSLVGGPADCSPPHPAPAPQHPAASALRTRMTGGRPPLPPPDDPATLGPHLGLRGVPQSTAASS
# [2] = CellTiter-Glo, 4 days incubation
# [3] = read-out: Enzyme IC50 (μM) DYRK1B
SMILES,"EC50 [1, 2]",IC50 (Human DYRK1A),IC50 (Human DYRK1B; [3]),EC50 [1],IC50 (Human DYRK1B; Enzyme IC50 (μM) DYRK1B)
"COC(=O)c1ccc(Cl)c(NC(=O)c2cc3cnc(N4CCN(C)CC4)nc3[nH]c2=O)c1 [Example 35, 4-Chloro-3-{[2-(4-methyl-piperazin-1-yl)-7-oxo-7,8-dihydro-pyrido[2,3-d]pyrimidine-6-carbonyl]amino}-benzoic acid methyl ester]",7.05 µM,0.0046 µM,0.031 µM,,
"COC(=O)c1ccc(Cl)c(NC(=O)c2cc3cnc(NCC(O)CO)nc3[nH]c2=O)c1 (stereo not shown) [Example 38, 4-Chloro-3-{[2-(2,3-dihydroxy-propylamino)-7-oxo-7,8-dihydro-pyrido[2,3-d]pyrimidine-6-carbonyl]amino}-benzoic acid methyl ester]",> 100 µM,0.0385 µM,0.08 µM,,
"COC(=O)c1ccc(Cl)c(NC(=O)c2cc3cnc(N(CCO)CCO)nc3[nH]c2=O)c1 [Example 39, 3-({2-[Bis-(2-hydroxy-ethyl)-amino]-7-oxo-7,8-dihydro-pyrido[2,3-d]pyrimidine-6-carbonyl}-amino)-4-chloro-benzoic acid methyl ester]",2.29 µM,0.0128 µM,0.0248 µM,,
"COc1ncc2cc(C(=O)Nc3cc(C(=O)NCc4cccc(Cl)c4)ccc3Cl)c(=O)[nH]c2n1 [Example 54, 2-Methoxy-7-oxo-7,8-dihydro-pyrido[2,3-d]pyrimidine-6-carboxylic acid [2-chloro-5-(3-chloro-benzylcarbamoyl)-phenyl]-amide]",1.93 µM,0.0215 µM,0.0677 µM,,
"COc1ncc2cc(C(=O)Nc3cc(C(=O)NCCc4ccccc4)ccc3Cl)c(=O)[nH]c2n1 [Example 70, 2-Methoxy-7-oxo-7,8-dihydro-pyrido[2,3-d]pyrimidine-6-carboxylic acid (2-chloro-5-phenethylcarbamoyl-phenyl)-amide]",2.3 µM,0.352 µM,0.204 µM,,
"CSc1ncc2cc(C(=O)Nc3cc(C(=O)NCc4cccc(Cl)c4)ccc3Cl)c(=O)[nH]c2n1 [Example 74, 2-Methylsulfanyl-7-oxo-7,8-dihydro-pyrido[2,3-d]pyrimidine-6-carboxylic acid [2-chloro-5-(3-chloro-benzylcarbamoyl)-phenyl]-amide]",1.07 µM,0.0256 µM,0.0553 µM,,
"CN1CCN(c2ncc3cc(C(=O)Nc4cc(C(=O)NCc5cccc(Cl)c5)ccc4Cl)c(=O)[nH]c3n2)CC1 [Example 75, 2-(4-Methyl-piperazin-1-yl)-7-oxo-7,8-dihydro-pyrido[2,3-d]pyrimidine-6-carboxylic acid [2-chloro-5-(3-chloro-benzylcarbamoyl)-phenyl]-amide]",0.563 µM,0.0211 µM,0.103 µM,,
"O=C(NCc1cccc(Cl)c1)c1ccc(Cl)c(NC(=O)c2cc3cnc(OCCCN4CCOCC4)nc3[nH]c2=O)c1 [Example 80, 2-(3-Morpholin-4-yl-propoxy)-7-oxo-7,8-dihydro-pyrido[2,3-d]pyrimidine-6-carboxylic acid [2-chloro-5-(3-chloro-benzylcarbamoyl)-phenyl]-amide]",0.325 µM,0.0046 µM,0.231 µM,,
"O=C(NCc1cccc(Cl)c1)c1ccc(Cl)c(NC(=O)c2cc3cnc(OCCN4CCOCC4)nc3[nH]c2=O)c1 [Example 81, 2-(2-Morpholin-4-yl-ethoxy)-7-oxo-7,8-dihydro-pyrido[2,3-d]pyrimidine-6-carboxylic acid [2-chloro-5-(3-chloro-benzylcarbamoyl)-phenyl]-amide]",0.651 µM,0.0313 µM,0.128 µM,,
"COc1ncc2cc(C(=O)Nc3cc(C(=O)NC(CCN)c4cccc(Cl)c4)ccc3Cl)c(=O)[nH]c2n1 (stereo not shown) [Example 84, 2-Methoxy-7-oxo-7,8-dihydro-pyrido[2,3-d]pyrimidine-6-carboxylic acid {5-[3-amino-1-(3-chloro-phenyl)-propylcarbamoyl]-2-chloro-phenyl}-amide]",,,,0.235 µM,0.0108 µM
"COc1ncc2cc(C(=O)Nc3cc(C(=O)NC(CN)c4cccc(Cl)c4)ccc3Cl)c(=O)[nH]c2n1 (stereo not shown) [Example 85, 2-Methoxy-7-oxo-7,8-dihydro-pyrido[2,3-d]pyrimidine-6-carboxylic acid {5-[2-amino-1-(3-chloro-phenyl)-ethylcarbamoyl]-2-chloro-phenyl}-amide]",0.524 µM,0.03 µM,0.029 µM,,
"O=C(NCc1cccc(Cl)c1)c1ccc(Cl)c(NC(=O)c2cc3cnc(N4CCOCC4)nc3[nH]c2=O)c1 [Example 86, 2-Morpholin-4-yl-7-oxo-7,8-dihydro-pyrido[2,3-d]pyrimidine-6-carboxylic acid [2-chloro-5-(3-chloro-benzylcarbamoyl)-phenyl]-amide]",> 10 µM,0.07 µM,3.25 µM,,
"CN1CCN(CCOc2ncc3cc(C(=O)Nc4cc(C(=O)NCc5cccc(Cl)c5)ccc4Cl)c(=O)[nH]c3n2)CC1 [Example 87, 2-[2-(4-Methyl-piperazin-1-yl)-ethoxy]-7-oxo-7,8-dihydro-pyrido[2,3-d]pyrimidine-6-carboxylic acid [2-chloro-5-(3-chloro-benzylcarbamoyl)-phenyl]amide]",0.186 µM,0.061 µM,0.0859 µM,,
"COc1ncc2cc(C(=O)Nc3cc(C(N)=O)ccc3Cl)c(=O)[nH]c2n1 [Example 88, 2-Methoxy-7-oxo-7,8-dihydro-pyrido[2,3-d]pyrimidine-6-carboxylic acid (5-carbamoyl-2-chloro-phenyl)-amide]",,,,> 10 µM,0.0749 µM
"COc1ncc2cc(C(=O)Nc3cc(C(=O)NC(CCN(C)C)c4cccc(Cl)c4)ccc3Cl)c(=O)[nH]c2n1 (stereo not shown) [Example 96, 2-Methoxy-7-oxo-7,8-dihydro-pyrido[2,3-d]pyrimidine-6-carboxylic acid {2-chloro-5-[1-(3-chloro-phenyl)-3-dimethylamino-propylcarbamoyl]-phenyl}-amide]",,,0.233 µM,1.97 µM,
"CN1CCN(CCCNc2ncc3cc(C(=O)Nc4cc(C(=O)NC(CCN)c5ccccc5)ccc4Cl)c(=O)[nH]c3n2)CC1 (stereo not shown) [Example 121, N-(5-(3-Amino-1-phenylpropylcarbamoyl)-2-chlorophenyl)-2-(3-(4-methylpiperazin-1-yl)propylamino)-7-oxo-7,8-dihydropyrido[2,3-d]pyrimidine-6-carboxamide hydrochloride]",,,,0.157 µM,0.0137 µM
"CN1CCN(CCNc2ncc3cc(C(=O)Nc4cc(C(=O)NC(CCN)c5ccccc5)ccc4Cl)c(=O)[nH]c3n2)CC1 (stereo not shown) [Example 132, N-(5-(3-Amino-1-phenylpropylcarbamoyl)-2-chlorophenyl)-2-(2-(4-methylpiperazin-1-yl)ethylamino)-7-oxo-7,8-dihydropyrido[2,3-d]pyrimidine-6-carboxamide hydrochloride]",,,,0.228 µM,0.0306 µM
"COc1ncc2cc(C(=O)Nc3cc(C(=O)N[C@H](CN)c4ccccc4)ccc3Cl)c(=O)[nH]c2n1 [Example 133, (S)—N-(5-(2-Amino-1-phenylethylcarbamoyl)-2-chlorophenyl)-2-methoxy-7-oxo-7,8-dihydropyrido[2,3-d]pyrimidine-6-carboxamide]",,,0.0365 µM,0.738 µM,
"NCCC(NC(=O)c1ccc(Cl)c(NC(=O)c2cc3cnc(N4CCC(N)CC4)nc3[nH]c2=O)c1)c1ccccc1 (stereo not shown) [Example 137, N-(5-(3-Amino-1-phenylpropylcarbamoyl)-2-chlorophenyl)-2-(4-aminopiperidin-1-yl)-7-oxo-7,8-dihydropyrido[2,3-d]pyrimidine-6-carboxamide hydrochloride]",,,,0.659 µM,0.0258 µM
"COc1ncc2cc(C(=O)Nc3cc(C(=O)NCCCN)ccc3Cl)c(=O)[nH]c2n1 [Example 164, N-(5-(3-Aminopropylcarbamoyl)-2-chlorophenyl)-2-methoxy-7-oxo-7,8-dihydropyrido[2,3-d]pyrimidine-6-carboxamide]",,,0.774 µM,> 10 µM,
"COc1ncc2cc(C(=O)Nc3cc(C(=O)NC4(c5ccccc5)CCNCC4)ccc3Cl)c(=O)[nH]c2n1 [Example 166, N-(2-Chloro-5-(4-phenylpiperidin-4-ylcarbamoyl)phenyl)-2-methoxy-7-oxo-7,8-dihydropyrido[2,3-d]pyrimidine-6-carboxamide]",> 10 µM,,1.89 µM,,
"COc1ncc2cc(C(=O)Nc3cc(C(=O)N[C@H](CCN)c4ccccc4)ccc3Cl)c(=O)[nH]c2n1 [Example 171, (R)—N-(5-(3-Amino-1-phenylpropylcarbamoyl)-2-chlorophenyl)-2-methoxy-7-oxo-7,8-dihydropyrido[2,3-d]pyrimidine-6-carboxamide]",,,0.017 µM,0.446 µM,
"COc1ncc2cc(C(=O)Nc3cc(C(=O)N[C@@H](CCN)c4ccccc4)ccc3Cl)c(=O)[nH]c2n1 [Example 176, (S)—N-(5-(3-Amino-1-phenylpropylcarbamoyl)-2-chlorophenyl)-2-methoxy-7-oxo-7,8-dihydropyrido[2,3-d]pyrimidine-6-carboxamide]",,,1.15 µM,> 1 µM,
